{"source": "patent US7495088B1", "about": "“Modified nucleotide compounds” (Enzo Life Sciences, Inc., priority 1989, dated 2009)", "molecules": {"B1": {"name": "14-G-4 (ssDNA)", "DNA": "ATGCAGCTAAGTCA", "modifications": "3' methylphosphonate linkage at G3,G6,G11"}, "B2": {"name": "14-Me6b-3 (ssDNA)", "DNA": "TGACTTAGCTGCAT", "modifications": "3' methylphosphonate linkage at positions 2,4,6,9,11,13"}, "B3": {"name": "14-T-4 (ssDNA)", "DNA": "ATGCAGCTAAGTCA", "modifications": "3' methylphosphonate linkage at T2,T8,T12"}, "B4": {"name": "14-A-3 (ssDNA)", "DNA": "TGACTTAGCTGCAT", "modifications": "3' methylphosphonate linkage at A3,A7,A13"}, "B5": {"name": "14-C-3 (ssDNA)", "DNA": "TGACTTAGCTGCAT", "modifications": "3' methylphosphonate linkage at C4,C9,C12"}, "B6": {"name": "14-Me5a-3 (ssDNA)", "DNA": "TGACTTAGCTGCAT", "modifications": "3' methylphosphonate linkage at positions 2,4,6,10,12"}, "B7": {"name": "14-C/T-4 (ssDNA)", "DNA": "ATGCAGCTAAGTCA", "modifications": "3' methylphosphonate linkage at T12,C13"}, "B8": {"name": "14-Me5b-3 (ssDNA)", "DNA": "TGACTTAGCTGCAT", "modifications": "3' methylphosphonate linkage at positions 2,4,6,8,13"}, "B9": {"name": "14-Me6a-3 (ssDNA)", "DNA": "TGACTTAGCTGCAT", "modifications": "3' methylphosphonate linkage at positions 2,4,6,8,10,12"}}, "key": {"Bovine spleen DNase II": {"molecular_target": "T1, Bovine spleen DNase II (Bos taurus, UniProt P56541)", "T1 sequence (P56541 20-365)": "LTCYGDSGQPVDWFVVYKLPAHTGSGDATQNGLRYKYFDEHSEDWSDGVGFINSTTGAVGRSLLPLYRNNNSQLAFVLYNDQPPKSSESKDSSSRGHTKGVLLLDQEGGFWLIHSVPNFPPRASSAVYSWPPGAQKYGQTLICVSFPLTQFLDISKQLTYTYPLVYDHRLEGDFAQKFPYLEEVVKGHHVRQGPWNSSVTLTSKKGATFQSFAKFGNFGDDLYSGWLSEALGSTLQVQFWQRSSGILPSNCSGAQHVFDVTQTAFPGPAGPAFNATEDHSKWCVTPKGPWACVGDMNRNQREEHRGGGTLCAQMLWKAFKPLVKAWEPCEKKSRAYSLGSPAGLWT"}, "E. coli RNase H": {"molecular_target": "E. coli RNase H (Escherichia coli, UniProt P0A7Y4)", "sequence (P0A7Y4 whole entry)": "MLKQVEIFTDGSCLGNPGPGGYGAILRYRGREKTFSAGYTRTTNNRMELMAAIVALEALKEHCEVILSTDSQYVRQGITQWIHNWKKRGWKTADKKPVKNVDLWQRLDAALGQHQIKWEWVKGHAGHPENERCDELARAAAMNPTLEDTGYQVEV", "conditions": "2 units RNase H, 60 minutes 37° C.; for ability to form RNase H substrate, 14-mer binding site: 32P-labeled runoff transcripts of pSP65-ALA-D"}, "[1]": {"molecular_target": "T2, Spleen phosphodiesterase (5'->3' exonuclease) (Bos taurus) (UniProt Q2KJJ8)", "T2 sequence": "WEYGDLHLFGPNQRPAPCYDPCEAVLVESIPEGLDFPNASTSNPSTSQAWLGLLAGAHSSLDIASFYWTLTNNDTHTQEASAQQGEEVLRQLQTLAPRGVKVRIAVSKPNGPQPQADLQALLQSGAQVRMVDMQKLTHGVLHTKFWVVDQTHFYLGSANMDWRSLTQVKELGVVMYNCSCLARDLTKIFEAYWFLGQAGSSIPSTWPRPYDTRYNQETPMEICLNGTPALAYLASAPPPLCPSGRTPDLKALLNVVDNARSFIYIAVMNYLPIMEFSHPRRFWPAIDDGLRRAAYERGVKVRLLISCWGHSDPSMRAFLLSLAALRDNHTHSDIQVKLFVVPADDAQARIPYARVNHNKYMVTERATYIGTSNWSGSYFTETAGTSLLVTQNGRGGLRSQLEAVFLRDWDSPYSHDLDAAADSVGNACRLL", "assay": "cleavage_in_vitro"}, "[2]": {"test_system": "Snake venom phosphodiesterase", "conditions": "pH 9"}, "[3]": {"test_system": "Worthington venom exonuclease"}, "[4]": {"test_system": "Bovine spleen phosphodiesterase"}, "[5]": {"molecular_target": "Snake venom phosphodiesterase (3'->5' exonuclease) (Crotalus adamanteus, UniProt J3SEZ3 J3SEZ3:24-851)", "sequence (J3SEZ3 24-851, one chain of several)": "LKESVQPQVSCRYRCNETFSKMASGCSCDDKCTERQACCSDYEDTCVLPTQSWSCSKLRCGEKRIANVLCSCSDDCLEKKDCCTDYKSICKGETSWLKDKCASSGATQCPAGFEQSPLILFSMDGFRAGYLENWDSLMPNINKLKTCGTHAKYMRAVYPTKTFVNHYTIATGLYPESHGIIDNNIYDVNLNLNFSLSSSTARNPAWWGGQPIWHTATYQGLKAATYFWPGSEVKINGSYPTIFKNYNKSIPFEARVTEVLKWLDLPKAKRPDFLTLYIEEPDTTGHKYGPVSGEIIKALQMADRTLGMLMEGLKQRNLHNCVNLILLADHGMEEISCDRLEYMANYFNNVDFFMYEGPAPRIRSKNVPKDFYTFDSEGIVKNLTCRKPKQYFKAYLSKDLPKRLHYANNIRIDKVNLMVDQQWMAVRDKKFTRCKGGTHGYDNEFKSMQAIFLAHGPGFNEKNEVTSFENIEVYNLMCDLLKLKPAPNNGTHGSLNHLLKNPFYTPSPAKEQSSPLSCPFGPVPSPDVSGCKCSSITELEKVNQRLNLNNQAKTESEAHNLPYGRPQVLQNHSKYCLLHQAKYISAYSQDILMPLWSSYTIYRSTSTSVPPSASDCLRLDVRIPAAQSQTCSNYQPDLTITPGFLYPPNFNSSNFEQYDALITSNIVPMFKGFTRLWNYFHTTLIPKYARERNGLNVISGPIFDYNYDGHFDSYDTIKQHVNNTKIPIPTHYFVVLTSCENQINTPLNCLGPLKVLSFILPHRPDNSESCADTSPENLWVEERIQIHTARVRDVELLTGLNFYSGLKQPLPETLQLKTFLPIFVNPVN", "assay": "cleavage_in_vitro; Tris pH 9.0, 37 C", "conditions": "tags: Sigma"}, "DNase I (pancreas)": {"molecular_target": "DNase I (pancreas) (Bos taurus, UniProt P00639 P00639:23-282)", "sequence (P00639 23-282, one chain of several)": "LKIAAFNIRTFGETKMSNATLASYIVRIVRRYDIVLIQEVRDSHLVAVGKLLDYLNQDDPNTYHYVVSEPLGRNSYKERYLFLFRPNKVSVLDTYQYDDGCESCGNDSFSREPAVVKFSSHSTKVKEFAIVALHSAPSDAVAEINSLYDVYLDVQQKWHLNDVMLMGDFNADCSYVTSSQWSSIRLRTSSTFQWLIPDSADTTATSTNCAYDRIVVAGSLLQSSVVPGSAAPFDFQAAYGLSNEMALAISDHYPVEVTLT", "assay": "cleavage_in_vitro; Mg, Ca, 37 C", "conditions": "tags: Bethesda Research Laboratories"}, "DNase II (spleen)": {"molecular_target": "T3, DNase II (spleen) (Bos taurus, UniProt P56541 P56541:20-365)", "T3 sequence": "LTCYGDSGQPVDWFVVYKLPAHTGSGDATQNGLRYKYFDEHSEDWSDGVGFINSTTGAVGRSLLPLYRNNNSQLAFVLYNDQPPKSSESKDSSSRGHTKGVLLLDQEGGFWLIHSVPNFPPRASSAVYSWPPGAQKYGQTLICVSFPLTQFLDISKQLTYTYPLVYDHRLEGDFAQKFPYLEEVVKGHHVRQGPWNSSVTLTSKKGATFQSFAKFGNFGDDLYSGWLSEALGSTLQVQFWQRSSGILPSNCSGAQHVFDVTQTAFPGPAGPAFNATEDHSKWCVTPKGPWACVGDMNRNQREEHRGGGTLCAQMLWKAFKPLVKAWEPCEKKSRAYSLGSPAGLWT", "assay": "cleavage_in_vitro; pH 4.6, 25 C", "conditions": "tags: Bethesda Research Laboratories"}, "[6]": {"molecular_target": "Venom phosphodiesterase (3'->5' exonuclease) (UniProt J3SEZ3 J3SEZ3:24-851)", "sequence (J3SEZ3 24-851, one chain of several)": "as the sequence (J3SEZ3 24-851, one chain of several) above", "assay": "cleavage_in_vitro; Worthington venom exonuclease", "conditions": "tags: Worthington"}}}
{"molecule": "TGACTTAGCTGCAT (chemistry not given here) [Oligomer 14-P-3]", "values": [{"measurement": "Tissue Culture Stabilities, Relative Half-Life, +FCS. B95-8", "setting": "B95-8 cells", "value": 1}, {"measurement": "half-life for digestion by DNase II", "setting": "Bovine spleen DNase II; bovine", "value": 10, "unit": "h"}, {"measurement": "Endonuclease Relative Half-Life, DNase II", "setting": "Bovine spleen DNase II; pH 4.6", "value": 1}]}
{"molecule": "TGACTTAGCTGCAT [14-C-3] (chemistry not given here) [Oligomer 14-C-3]", "values": [{"measurement": "ability to form RNase H substrate, 14-mer binding site", "setting": "E. coli RNase H", "value": "formed RNase H substrates"}]}
{"molecule": "TGACTTAGCTGCAT [14-Me^5a-3] (chemistry not given here)", "values": [{"measurement": "3′-exonucleolytic cleavage in tissue culture", "setting": "B95-8 cells", "value": "single stepwise cleavage"}, {"measurement": "Tissue Culture Stabilities, Relative Half-Life, +FCS. B95-8", "setting": "B95-8 cells", "value": 30}, {"measurement": "ability to form RNase H substrate, 14-mer binding site", "setting": "E. coli RNase H", "value": "able to form RNase H substrates"}]}
{"molecule": "ATGCAGCTAAGTCA [14-C-4]", "values": [{"measurement": "activity (relative half-life)", "setting": "[1]; 3' methylphosphonate linkage at C4,C7,C13, all modified oligos tested more than 200 times as resistant, apparently shortened", "value": "> 200"}]}
{"molecule": "TGACTTAGCTGCAT [14-P-3]", "values": [{"measurement": "activity (relative half-life)", "setting": "[1]; half-time about 30 min, citrate pH 6.0, 5 mM EDTA, 37 C", "value": 1}]}
{"molecule": "ATGCAGCTAAGTCA [14-G-4]", "values": [{"measurement": "activity (relative half-life)", "setting": "[1]; 3' methylphosphonate linkage at G3,G6,G11, >>200, apparently shortened", "value": "> 200"}]}
{"molecule": "ATGCAGCTAAGTCA [14-P-4] (chemistry not given here) [Oligomer 14-P-4]", "values": [{"measurement": "Exonuclease Relative Half-Life, Venom (3′->5′-)", "setting": "[2]", "value": 1}]}
{"molecule": "ATGCAGCTAAGTCA [14-T-4]", "values": [{"measurement": "activity (relative half-life)", "setting": "[1]; 3' methylphosphonate linkage at T2,T8,T12, >>200, apparently shortened", "value": "> 200"}]}
{"molecule": "TGACTTAGCTGCAT [14-A-3] (chemistry not given here) [Oligomer 14-A-3]", "values": [{"measurement": "ability to form RNase H substrate, 14-mer binding site", "setting": "E. coli RNase H", "value": "formed RNase H substrates"}]}
{"molecule": "ATGCAGCTAAGTCA (chemistry not given here) [14-C/T-4]", "values": [{"measurement": "increase in half-life as compared to 14-C-4", "setting": "[3]", "value": "two-fold"}]}
{"molecule": "TGACTTAGCTGCAT [14-C-3]", "values": [{"measurement": "activity (relative half-life)", "setting": "[1]; 3' methylphosphonate linkage at C4,C9,C12, >>200", "value": "> 200"}]}
{"molecule": "TGACTTAGCTGCAT [14-A-3]", "values": [{"measurement": "activity (relative half-life)", "setting": "[1]; 3' methylphosphonate linkage at A3,A7,A13, >>200", "value": "> 200"}]}
{"molecule": "ATGCAGCTAAGTCA [14-G-4] (chemistry not given here) [Oligomer 14-G-4]", "values": [{"measurement": "observation after spleen exonuclease digestion (electrophoretic mobility of the hybrid)", "setting": "[4]", "value": "apparently shortened"}]}
{"molecule": "ATGCAGCTAAGTCA [14-T-4] (chemistry not given here) [Oligomer 14-T-4]", "values": [{"measurement": "observation after spleen exonuclease digestion (electrophoretic mobility of the hybrid)", "setting": "[4]", "value": "apparently shortened"}]}
{"molecule": "ATGCAGCTAAGTCA [14-P-4]", "values": [{"measurement": "activity (relative half-life)", "setting": "[1]; half-time about 30 min, citrate pH 6.0, 37 C", "value": 1}]}
{"molecule": "TGACTTAGCTGCAT [14-Me^5b-3] (chemistry not given here)", "values": [{"measurement": "3′-exonucleolytic cleavage in tissue culture", "setting": "B95-8 cells", "value": "absence of cleavage"}, {"measurement": "Tissue Culture Stabilities, Relative Half-Life, +FCS. B95-8", "setting": "B95-8 cells", "value": 30}, {"measurement": "ability to form RNase H substrate, 14-mer binding site", "setting": "E. coli RNase H", "value": "able to form RNase H substrates"}]}
{"molecule": "TGACTTAGCTGCAT [14-Me^6a-3] (chemistry not given here)", "values": [{"measurement": "3′-exonucleolytic cleavage in tissue culture", "setting": "B95-8 cells", "value": "single stepwise cleavage"}, {"measurement": "Tissue Culture Stabilities, Relative Half-Life, +FCS. B95-8", "setting": "B95-8 cells", "value": 30}, {"measurement": "ability to form RNase H substrate, 14-mer binding site", "setting": "E. coli RNase H", "value": "did not"}]}
{"molecule": "TGACTTAGCTGCAT [14-Me6a-3]", "values": [{"measurement": "activity (relative half-life)", "setting": "[1]; 3' methylphosphonate linkage at positions 2,4,6,8,10,12, >>200", "value": "> 200"}]}
{"molecule": "CTGGGGCTGCAT [12-Me^5a-1]", "values": [{"measurement": "ability to form RNase H substrate / cleavage of RNA, 12-mer binding site", "setting": "E. coli RNase H; NcoI runoff transcript", "value": "permitted cleavage of most of the RNA"}]}
{"molecule": "TGACTTAGCTGCAT [14-P-3] (chemistry not given here) [Oligomer 14-P-3, reference compound]", "values": [{"measurement": "ability to form RNase H substrate, 14-mer binding site", "setting": "E. coli RNase H", "value": "formed RNase H substrates"}, {"measurement": "Exonuclease Relative Half-Life, Venom (3′->5′-)", "setting": "[2]", "value": 1}]}
{"molecule": "TGACTTAGCTGCAT [14-Me^6b-3] (chemistry not given here)", "values": [{"measurement": "3′-exonucleolytic cleavage in tissue culture", "setting": "B95-8 cells", "value": "absence of cleavage"}, {"measurement": "Tissue Culture Stabilities, Relative Half-Life, +FCS. B95-8", "setting": "B95-8 cells", "value": 30}]}
{"molecule": "ATGCAGCTAAGTCA (chemistry not given here) [Oligomer 14-C-4]", "values": [{"measurement": "observation after spleen exonuclease digestion (electrophoretic mobility of the hybrid)", "setting": "[4]", "value": "apparently shortened"}]}
{"molecule": "B1", "values": [{"measurement": "activity", "setting": "[5]", "value": 100, "unit": "relative half-life"}]}
{"molecule": "B2", "values": [{"measurement": "activity", "setting": "DNase I (pancreas)", "value": "> 600", "unit": "relative half-life"}, {"measurement": "activity", "setting": "DNase II (spleen)", "value": "> 5", "unit": "relative half-life"}]}
{"molecule": "B3", "values": [{"measurement": "activity", "setting": "[5]", "value": "> 500", "unit": "relative half-life"}]}
{"molecule": "B4", "values": [{"measurement": "activity", "setting": "DNase II (spleen)", "value": "> 5", "unit": "relative half-life"}]}
{"molecule": "B5", "values": [{"measurement": "activity", "setting": "DNase I (pancreas)", "value": 6, "unit": "relative half-life"}, {"measurement": "activity", "setting": "DNase II (spleen)", "value": 2, "unit": "relative half-life"}, {"measurement": "activity", "setting": "[5]", "value": "> 500", "unit": "relative half-life"}]}
{"molecule": "B6", "values": [{"measurement": "activity", "setting": "DNase I (pancreas)", "value": 300, "unit": "relative half-life"}, {"measurement": "activity", "setting": "DNase II (spleen)", "value": "> 5", "unit": "relative half-life"}]}
{"molecule": "B7", "values": [{"measurement": "activity", "setting": "[6]", "value": "~2 half-life relative to 14-C-4"}]}
{"molecule": "B8", "values": [{"measurement": "activity", "setting": "DNase I (pancreas)", "value": 12, "unit": "relative half-life"}, {"measurement": "activity", "setting": "DNase II (spleen)", "value": "> 5", "unit": "relative half-life"}]}
{"molecule": "B9", "values": [{"measurement": "activity", "setting": "DNase I (pancreas)", "value": "> 600", "unit": "relative half-life"}, {"measurement": "activity", "setting": "DNase II (spleen)", "value": "> 5", "unit": "relative half-life"}]}
